According to patent US20040209891A1, “Treatment of type 2 diabetes with inhibitors of dipeptidyl peptidase IV” (priority 2001, published 2004):
Where a name gives a salt, the structure may show the parent alone.

Tests used:
ZDF rat = assay: Effect of long-term inhibition of DP-IV in ZDF rat (four weeks dosing); format: in vivo; settings: male ZDF rats; for Glycaemia: day of development of significant hyperglycaemia: obese control hyperglycaemic at day 8
Text: Control animals are given vehicle. A group of untreated lean rats is used as a comparison. Glycaemia, insulinaemia, body weight, food and water intake, and plasma triglyceride and free fatty acid levels are monitored throughout the study.

Human DP-IV = Human DP-IV (Homo sapiens, UniProt P27487); format: biochemical; settings: substrate Ala-Pro-AFC, fluorescence
Chain of Human DP-IV (P27487 whole entry): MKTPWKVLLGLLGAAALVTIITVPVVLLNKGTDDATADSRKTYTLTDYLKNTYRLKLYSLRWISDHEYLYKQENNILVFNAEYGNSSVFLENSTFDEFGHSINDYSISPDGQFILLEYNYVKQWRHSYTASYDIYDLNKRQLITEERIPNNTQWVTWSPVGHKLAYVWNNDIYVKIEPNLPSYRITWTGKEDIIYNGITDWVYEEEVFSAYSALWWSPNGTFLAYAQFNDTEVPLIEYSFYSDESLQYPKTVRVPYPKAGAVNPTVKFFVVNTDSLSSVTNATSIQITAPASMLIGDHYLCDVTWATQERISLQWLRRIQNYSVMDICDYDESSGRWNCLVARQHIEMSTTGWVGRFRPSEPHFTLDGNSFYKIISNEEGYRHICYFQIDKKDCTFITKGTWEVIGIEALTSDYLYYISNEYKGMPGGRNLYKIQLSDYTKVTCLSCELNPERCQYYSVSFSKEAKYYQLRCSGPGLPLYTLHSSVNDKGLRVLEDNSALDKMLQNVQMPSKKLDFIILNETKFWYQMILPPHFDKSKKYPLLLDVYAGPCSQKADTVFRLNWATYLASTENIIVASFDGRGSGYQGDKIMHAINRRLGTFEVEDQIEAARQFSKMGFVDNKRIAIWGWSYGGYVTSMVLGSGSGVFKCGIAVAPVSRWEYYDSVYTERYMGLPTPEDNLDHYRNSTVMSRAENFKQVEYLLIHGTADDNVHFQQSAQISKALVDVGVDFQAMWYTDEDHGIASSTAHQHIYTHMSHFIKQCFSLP
Description: The in vitro inhibitory action of the compounds is determined in a fluorimetric assay. Human DP-IV is incubated with a standard substrate, Ala-Pro-AFC, in the presence of various concentrations of the inhibitor. The reaction is monitored by measuring the increase in fluorescence due to the reaction product, AFC. Using standard manipulations, an inhibitory constant, Ki, is determined.

Row | Compound | Glycaemia: day of development of significant hyperglycaemia (ZDF rat; 10 mg/kg p.o. once daily) [days] | Insulinaemia: day on which peak insulin level is reached (ZDF rat; 10 mg/kg p.o. once daily, obese control peak by day 8) [days] | Glycaemia: day of development of significant hyperglycaemia (ZDF rat; 10 mg/kg p.o. twice daily) [days] | Ki (Human DP-IV) [nM]
1 | CC(C)(C)[C@H](N)C(=O)N1CCC[C@H]1C#N [Example 1A, (2S)-1-((2′S)-2′-amino-3′,3′-dimethylbutanoyl)pyrrolidine-2-carbonitrile hydrochloride] | 15 | 11 | 24 | 
2 | N#C[C@@H]1CCCN1C(=O)[C@@H](N)CCCNC(=O)c1cnccn1 [Example 1B, (2S)-1-((2′S)-2′-amino-5′-pyrazinecarbonylaminopentanoyl)pyrrolidine-2-carbonitrile trifluoroacetate] |  |  |  | 0.4
